Source: patent US10573426B2, “Fluorinated nitriles as dielectric gases” (3M INNOVATIVE PROPERTIES COMPANY, priority 2012, dated 2020)

Legend:
[1] = test system: rats; experiment: 4 hour inhalation LC50 in rats; format: in vivo
Experimental: (§1) For example, heptafluoroisobutyronitrile and 2,3,3,3-tetrafluoro-2-(trifluoromethoxy) propanenitrile have 4 hour inhalation lethal concentration at 50% (“LC-50”, defined as the dose required to produce lethality in half the members of a tested population after a specified test duration) (in rats) values of about 15,000 ppm. […] The nitriles of the present disclosure achieve these lower toxicities without the addition of additives such as nitrite esters as in U.S. Pat. No. 4,547,316.

[2] = 6 hour inhalation LC50; format: in vivo; settings: species not given
Experimental: as §1

| Structure (SMILES) | 4 hour inhalation lethal concentration at 50% (LC-50) [1] | 6 hour inhalation LC50 [2] [ppm] |
| --- | --- | --- |
| N#CC(F)(OC(F)(F)F)C(F)(F)F (centres unmarked) [2,3,3,3-tetrafluoro-2-(trifluoromethoxy)propanenitrile] | about 15,000 ppm |  |
| N#CC(F)(F)C(F)(F)C(F)(F)F [CF3CF2CF2CN] | less than 6,000 ppm |  |
| N#CC(F)(F)C(F)(F)F [CF3CF2CN] | 2731 ppm |  |
| N#CC(F)(F)F [CF3CN] |  | 240 |
| N#CC(F)(C(F)(F)F)C(F)(F)F [heptafluoroisobutyronitrile, Heptafluoroisobutyronitrile] | about 15,000 ppm |  |
